A short description of this test: Antagonist activity at AR in mouse SC3 cells assessed as inhibition of DHT-induced cell proliferation after 3 days by CCK8 assay. In general terms: Tetrazolium assays rely on reduction of a dye to a coloured formazan, in cell work by metabolically active cells.
By IC50 is commonly meant the concentration that gives 50% inhibition. Take `COc1cccc(C(=O)Nc2cc(F)c(Oc3ccc(O)cc3)c(F)c2)c1`: the IC50 was found to be 0.51 µM.

As for `CN(C)c1ccc(C(=O)Nc2cccc(Oc3ccc(O)cc3)c2)cc1`, the IC50 was 7.4 µM. As to `COc1ccc(C(=O)Nc2cccc(Oc3ccc(O)cc3)c2C)cc1`, the 50% inhibitory concentration (IC50) was over 10 µM. With `COc1ccc(C(=O)Nc2cccc(Oc3ccc(O)cc3)c2)cc1`, the half-inhibitory concentration (IC50) is over 10 µM. As for `COc1cccc(C(=O)Nc2ccc(Oc3ccc(O)cc3)cc2OC)c1`, the figure is 3.4 µM; as for `COc1cccc(C(=O)Nc2ccc(Oc3ccc(O)cc3)c(Br)c2)c1`, 5.7 µM.

Turning to `COc1ccc(C(=O)Nc2ccc(C)c(Oc3ccc(O)cc3)c2)cc1`, the half-maximal inhibitory concentration (IC50) was over 10 µM. `COc1ccc(C(=O)Nc2cc(Oc3ccc(O)cc3)ccc2C)cc1`: the IC50 was over 10 µM.

For the compound `COc1cccc(C(=O)N(C)c2ccc(Oc3ccc(O)cc3)c(C)c2)c1`, the concentration for half-maximal inhibition (IC50) is 7.6 µM. In the case of `COc1cccc(C(=O)Nc2ccc(Oc3cccc(O)c3)cc2)c1`, the 50% inhibitory concentration (IC50) was over 10 µM. As for `COc1ccc(C(=O)Nc2cccc(Oc3cccc(O)c3)c2)cc1`, the figure is over 10 µM. For `CN(C)c1ccc(C(=O)Nc2ccc(Oc3cccc(O)c3)cc2)cc1`, the IC50 turned out to be 3.2 µM. As for `COc1cccc(C(=O)Nc2ccc(Oc3ccc(O)cc3)cc2C)c1`, the figure is 3 µM; as for `COc1cccc(C(=O)Nc2ccc(Oc3ccc(O)cc3)c(F)c2F)c1`, 0.53 µM; as for `CN(C)c1cccc(C(=O)Nc2cccc(Oc3cccc(O)c3)c2)c1`, over 10 µM. For `COc1cccc(C(=O)Nc2ccc(Oc3ccc(O)cc3)c(F)c2)c1`, the IC50 is 0.4 µM. As for `COc1cccc(C(=O)Nc2ccc(Oc3ccc(O)cc3)c(C(F)(F)F)c2)c1`, the figure is 4.3 µM; as for `COc1cccc(C(=O)Nc2ccc(Oc3ccc(O)cc3)c(Cl)c2)c1`, 0.48 µM; as for `CN(C)c1ccccc1C(=O)Nc1cccc(Oc2ccc(O)cc2)c1`, 6.3 µM.

Regarding `COc1cccc(C(=O)Nc2cc(Cl)c(Oc3ccc(O)cc3)c(Cl)c2)c1`, the IC50 came out at 0.48 µM. For `COc1ccccc1C(=O)Nc1ccc(C)c(Oc2ccc(O)cc2)c1`, the IC50 turned out to be 5.3 µM. Regarding `COc1ccccc1C(=O)Nc1cccc(Oc2ccc(O)cc2)c1`, the concentration for half-maximal inhibition (IC50) is over 10 µM.

For the compound `COc1cccc(C(=O)Nc2ccc(Oc3ccc(O)cc3)cc2F)c1`, the IC50 was 0.65 µM. Consider `COc1cccc(C(=O)Nc2cccc(Oc3cccc(O)c3)c2)c1`, for which the IC50 was over 10 µM. Consider `COc1cccc(C(=O)Nc2ccc(Oc3ccc(O)cc3)cc2Cl)c1`, for which the half-inhibitory concentration (IC50) was 1.7 µM.

The record behind these values is BindingDB's records for doi:10.1016/j.bmc.2018.09.008 (Ochanomizu University, 2018).
